According to publication PMC5773651, “Customised in vitro model to detect human metabolism-dependent idiosyncratic drug-induced liver injury” (Archives of Toxicology, 2017):
Read-outs that look alike come from different tables or passages of the source. Marks after values point to notes of the source that are not given here.

Key:
HepG2 cells [1] = test: Cell viability (PI), IC50, control HepG2 cells; type: cell-based; conditions: Homo sapiens; control non-transduced HepG2; 24 h; unit inferred, tested range in µM; read-out: IC50 (cell viability), C
[2] = system: HepG2 cells transduced with AdCYP2D6; test: Cell viability (PI), IC50, AdCYP2D6-HepG2; type: cell-based; conditions: Homo sapiens, unit inferred, tested range in µM
Experimental: (§1) For subculturing purposes, cells were detached by treatment with 0.25% trypsin/0.02% EDTA at 37 °C. For the adenovirus infection studies, cells were seeded in 96-well plates (5000 cells/well) and adenovirus-containing medium was added 48 h later. After 24 h, cells were transferred to the adenovirus-free medium and cultured for an additional 24-h period prior to the incubations performed with the test chemicals. To optimise the expression of the functional enzymes in the adenovirus-transduced HepG2 (Ad-HepG2) cells, different doses (MOI, multiplicity of infection, defined as plaque formation units per cell) of each adenovirus were tested.
(§2) The drugs included in the study were chosen based on previous information about their hepatotoxicity. Information on the potential mechanisms implicated in the toxicity of each compound and the major enzymes involved in their metabolism is summarised in Table 1. HepG2 or Ad-HepG2 (48 h post-infection) cells were exposed for 24 h to eight concentrations of the tested compounds. Each experimental condition was repeated independently three times (with three wells measured each time). The stock solutions of compounds were prepared in DMSO and were conveniently diluted in the culture medium to obtain the desired final concentrations. The final DMSO concentration in the culture medium was 0.5% (v/v), and the control cultures were treated with the same amount of solvent.
(§3) Following treatments, cells were simultaneously loaded with several fluorescent dyes to measure multiple biomarkers of cell toxicity. […] Information about the probes is summarised in Supplementary Table S2.
(§4) After incubating with dyes, cells were imaged by the Scan^R system (Olympus, Germany). Dyes were excited, and their fluorescence was monitored at the excitation and emission wavelengths at appropriate filter settings. The collected images were analysed using the Scan^R analysis module, which allows the simultaneous quantification of subcellular structures that are stained by different fluorescent probes.

[3] = system: HepG2 cells transduced with AdCYP2D6; test: HCS hepatotoxicity assay (MEC, TR), AdCYP2D6-HepG2; type: cell-based, human; conditions: 24 h; for TR: TR = 100 x Cmax/lowest MEC; for MEC Apoptosis / MEC Calcium / MEC Lipids / MEC MMP / MEC Mitochondrial superoxide / MEC ROS: unit inferred, tested range in µM
Experimental: as §1, §2, §3, §4

HepG2 cells [4] = conditions: human, 24 h
Experimental: as §1, §2, §3, §4

[5] = cited from earlier work; for Bioactivation / Enzyme: major enzyme(s) involved in the bioactivation (denoted as *) or detoxification of the drug: previous information; for Toxicity (mechanisms of toxicity): ref Ashrafian et al. [2007], Donato et al. [2009], Fromenty and Pessayre [1997], Rolo et al. [2000], Tolosa et al. [2012b]; for DILI category: ref Gustafsson et al. ([2014])
[6] = system: HepG2 cells transduced with AdCYP2C19; test: Cell viability (PI), IC50, AdCYP2C19-HepG2; type: cell-based; conditions: Homo sapiens, unit inferred, tested range in µM
Experimental: as §1, §2, §3, §4

[7] = system: HepG2 cells transduced with AdCYP3A4; test: Cell viability (PI), IC50, AdCYP3A4-HepG2; type: cell-based; conditions: Homo sapiens, unit inferred, tested range in µM
Experimental: as §1, §2, §3, §4

[8] = system: HepG2 cells transduced with AdCYP1A2; test: Cell viability (PI), IC50, AdCYP1A2-HepG2; type: cell-based; conditions: Homo sapiens, unit inferred, tested range in µM
Experimental: as §1, §2, §3, §4

[9] = system: HepG2 cells transduced with AdCYP3A4; test: HCS hepatotoxicity assay (MEC, TR), AdCYP3A4-HepG2; type: cell-based, human; conditions: 24 h; for TR: TR = 100 x Cmax/lowest MEC; for MEC Apoptosis / MEC Calcium / MEC MMP / MEC Mitochondrial superoxide / MEC ROS: unit not given, tested range in µM
[10] = system: HepG2 cells transduced with AdCYP2C19; test: HCS hepatotoxicity assay (MEC, TR), AdCYP2C19-HepG2; type: cell-based, human; conditions: 24 h; for TR: TR = 100 x Cmax/lowest MEC; for MEC Apoptosis / MEC Calcium / MEC MMP / MEC Mitochondrial superoxide / MEC ROS: unit inferred, tested range in µM
Experimental: as §1, §2, §3, §4

[11] = system: HepG2 cells transduced with AdCYP1A2; test: HCS hepatotoxicity assay (MEC, TR), AdCYP1A2-HepG2; type: cell-based, human; conditions: 24 h; for MEC Apoptosis / MEC Calcium / MEC MMP / MEC Mitochondrial superoxide / MEC ROS: unit inferred, tested range in µM; for TR: TR = 100 x Cmax/lowest MEC
Experimental: as §1, §2, §3, §4

[12] = ref Atienzar et al. ([2014]), Garside et al. ([2014]), Tolosa et al. ([2012b]); cited from earlier work

Work on `C1CCC(C(CC2CCCCN2)C2CCCCC2)CC1` (centres unmarked) [Perhexiline] yielded an IC50 (HepG2 cells [1]) of 22.5 µM, an IC50 ([2]; ADV CYP2D6 x1, 24 h, read-out: IC50 (cell viability), ADV dose x1) of 24.4 µM and an IC50 ([2]; ADV CYP2D6 x4, 24 h, read-out: IC50 (cell viability), ADV dose x4) of 25.5 µM. The IC50 ([2]; ADV CYP2D6 x10, 24 h, read-out: IC50 (cell viability), ADV dose x10) was 27.4 µM, the TR ([3]; AdCYP 2D6 1x) was 17.6 and the MEC Apoptosis ([3]; AdCYP 2D6 1x) was 22.5 µM. The MEC Calcium ([3]; AdCYP 2D6 1x) was 12.5 µM, the MEC Lipids ([3]; AdCYP 2D6 1x) was > 27.5 µM and the MEC MMP ([3]; AdCYP 2D6 1x) was 22.5 µM. For the same compound, the MEC Mitochondrial superoxide ([3]; AdCYP 2D6 1x) was 22.5 µM, the MEC ROS ([3]; AdCYP 2D6 1x) was > 27.5 µM and the TR ([3]; AdCYP 2D6 4x) was 17.6. The MEC Apoptosis ([3]; AdCYP 2D6 4x) was 25 µM, the MEC Calcium ([3]; AdCYP 2D6 4x) was 12.5 µM and the MEC Lipids ([3]; AdCYP 2D6 4x) was > 27.5 µM. The MEC MMP ([3]; AdCYP 2D6 4x) was 27.5 µM, the MEC Mitochondrial superoxide ([3]; AdCYP 2D6 4x) was 22.5 µM and the MEC ROS ([3]; AdCYP 2D6 4x) was > 27.5 µM. For the same compound, the TR ([3]; AdCYP 2D6 10x) was 17.6, the MEC Apoptosis ([3]; AdCYP 2D6 10x) was 25 µM and the MEC Calcium ([3]; AdCYP 2D6 10x) was 12.5 µM. For the same compound, the MEC Lipids ([3]; AdCYP 2D6 10x) was > 27.5 µM, the MEC MMP ([3]; AdCYP 2D6 10x) was > 27.5 µM and the MEC Mitochondrial superoxide ([3]; AdCYP 2D6 10x) was 22.5 µM. The MEC ROS ([3]; AdCYP 2D6 10x) was > 27.5 µM, the MEC Apoptosis (HepG2 cells [4]) was 15 µM and the “MEC Calcium” value (HepG2 cells [4]) was 10. The “MEC Lipids” value (HepG2 cells [4]) was 10, the “MEC MMP” value (HepG2 cells [4]) was 22.5 and the “MEC Mitochondrial superoxide” value (HepG2 cells [4]) was 10. The “MEC ROS” value (HepG2 cells [4]) was 25, the TR (HepG2 cells [4]) was 22 and the Bioactivation [5] was “No”. For the same compound, the “Enzyme: major enzyme(s) involved in the bioactivation (denoted as *) or detoxification of the drug” value [5] was “CYP2D6”, the “Toxicity (mechanisms of toxicity)” value [5] was “MI, ST” and the DILI category [5] was “Severe”.
`CC(C)C(=O)Nc1ccc([N+](=O)[O-])c(C(F)(F)F)c1` [Flutamide] gave an IC50 (HepG2 cells [1]) of 398 µM, an IC50 ([6]; ADV CYP2C19 x1, 24 h, read-out: IC50 (cell viability), ADV dose x1) of 344 µM and an IC50 ([6]; ADV CYP2C19 x4, 24 h, read-out: IC50 (cell viability), ADV dose x4) of 309 µM. It also gave an IC50 ([6]; ADV CYP2C19 x10, 24 h, read-out: IC50 (cell viability), ADV dose x10) of 255 µM, an IC50 ([7]; ADV CYP3A4 x1, 24 h, read-out: IC50 (cell viability), ADV dose x1) of 219 µM and an IC50 ([7]; ADV CYP3A4 x4, 24 h, read-out: IC50 (cell viability), ADV dose x4) of 176 µM. For the same compound, the IC50 ([7]; ADV CYP3A4 x10, 24 h, read-out: IC50 (cell viability), ADV dose x10) was 145 µM, the IC50 ([8]; ADV CYP1A2 x1, 24 h, read-out: IC50 (cell viability), ADV dose x1) was 384 µM and the IC50 ([8]; ADV CYP1A2 x4, 24 h, read-out: IC50 (cell viability), ADV dose x4) was 261 µM. The IC50 ([8]; ADV CYP1A2 x10, 24 h, read-out: IC50 (cell viability), ADV dose x10) was 248 µM, the TR ([9]; AdCYP 3A4 1x) was 2.5 and the “MEC Apoptosis” value ([9]; AdCYP 3A4 1x) was 500. For the same compound, the “MEC Calcium” value ([9]; AdCYP 3A4 1x) was 250, the “MEC MMP” value ([9]; AdCYP 3A4 1x) was 750 and the “MEC Mitochondrial superoxide” value ([9]; AdCYP 3A4 1x) was 500. The “MEC ROS” value ([9]; AdCYP 3A4 1x) was 250, the TR ([9]; AdCYP 3A4 4x) was 5.0 and the “MEC Apoptosis” value ([9]; AdCYP 3A4 4x) was 250. The “MEC Calcium” value ([9]; AdCYP 3A4 4x) was 250, the “MEC MMP” value ([9]; AdCYP 3A4 4x) was 500 and the “MEC Mitochondrial superoxide” value ([9]; AdCYP 3A4 4x) was 250. The “MEC ROS” value ([9]; AdCYP 3A4 4x) was 125, the TR ([9]; AdCYP 3A4 10x) was 5.0 and the “MEC Apoptosis” value ([9]; AdCYP 3A4 10x) was 125. For the same compound, the “MEC Calcium” value ([9]; AdCYP 3A4 10x) was 250, the “MEC MMP” value ([9]; AdCYP 3A4 10x) was 250 and the “MEC Mitochondrial superoxide” value ([9]; AdCYP 3A4 10x) was 125. The “MEC ROS” value ([9]; AdCYP 3A4 10x) was 125, the TR ([10]; AdCYP 2C19 1x) was 2.5 and the MEC Apoptosis ([10]; AdCYP 2C19 1x) was 250 µM. For the same compound, the MEC Calcium ([10]; AdCYP 2C19 1x) was 250 µM, the MEC MMP ([10]; AdCYP 2C19 1x) was 250 µM and the MEC Mitochondrial superoxide ([10]; AdCYP 2C19 1x) was 250 µM. It also gave an MEC ROS ([10]; AdCYP 2C19 1x) of 250 µM, a TR ([10]; AdCYP 2C19 4x) of 6.2 and an MEC Apoptosis ([10]; AdCYP 2C19 4x) of 250 µM. For the same compound, the MEC Calcium ([10]; AdCYP 2C19 4x) was 100 µM, the MEC MMP ([10]; AdCYP 2C19 4x) was 250 µM and the MEC Mitochondrial superoxide ([10]; AdCYP 2C19 4x) was 250 µM. The MEC ROS ([10]; AdCYP 2C19 4x) was 250 µM, the TR ([10]; AdCYP 2C19 10x) was 12.4 and the MEC Apoptosis ([10]; AdCYP 2C19 10x) was 100 µM. It also gave an MEC Calcium ([10]; AdCYP 2C19 10x) of 75 µM, an MEC MMP ([10]; AdCYP 2C19 10x) of 250 µM and an MEC Mitochondrial superoxide ([10]; AdCYP 2C19 10x) of 50 µM. The MEC ROS ([10]; AdCYP 2C19 10x) was 50 µM, the MEC Apoptosis ([11]; AdCYP 1A2 1x) was 250 µM and the MEC Calcium ([11]; AdCYP 1A2 1x) was 500 µM. For the same compound, the MEC MMP ([11]; AdCYP 1A2 1x) was 500 µM, the MEC Mitochondrial superoxide ([11]; AdCYP 1A2 1x) was 75 µM and the MEC ROS ([11]; AdCYP 1A2 1x) was 500 µM. For the same compound, the TR ([11]; AdCYP 1A2 4x) was 12.4, the MEC Apoptosis ([11]; AdCYP 1A2 4x) was 250 µM and the MEC Calcium ([11]; AdCYP 1A2 4x) was 500 µM. The MEC MMP ([11]; AdCYP 1A2 4x) was 500 µM, the MEC Mitochondrial superoxide ([11]; AdCYP 1A2 4x) was 50 µM and the MEC ROS ([11]; AdCYP 1A2 4x) was 500 µM. The TR ([11]; AdCYP 1A2 10x) was 12.4, the MEC Apoptosis ([11]; AdCYP 1A2 10x) was 125 µM and the MEC Calcium ([11]; AdCYP 1A2 10x) was 50 µM. For the same compound, the MEC MMP ([11]; AdCYP 1A2 10x) was 500 µM, the MEC Mitochondrial superoxide ([11]; AdCYP 1A2 10x) was 50 µM and the MEC ROS ([11]; AdCYP 1A2 10x) was 250 µM. For the same compound, the MEC Apoptosis (HepG2 cells [4]) was 500 µM, the “MEC Calcium” value (HepG2 cells [4]) was 500 and the “MEC MMP” value (HepG2 cells [4]) was 500. For the same compound, the “MEC Mitochondrial superoxide” value (HepG2 cells [4]) was 500, the “MEC ROS” value (HepG2 cells [4]) was 500 and the TR (HepG2 cells [4]) was 1.2. The Cmax [12] was 6.2 µM, the Bioactivation [5] was “Yes” and the “Enzyme: major enzyme(s) involved in the bioactivation (denoted as *) or detoxification of the drug” value [5] was “CYP1A2*, CYP2C19*, CYP3A4*”. The “Toxicity (mechanisms of toxicity)” value [5] was “MI, OS” and the DILI category [5] was “Severe”.
